Data published in patent US9227979B2, “Fluorescent antagonists of the A3 adenosine receptor” (The United States of America, as represented by the …, priority 2012, dated 2016).
Structures can show the parent of a compound that is named as a salt. Where two headings read alike, the source gives them in different places.

Assays:
hA1 AR = hA1 AR (Homo sapiens (Human), UniProt P30542); assay: Radioligand membrane binding assay at hA1 AR ([3H]R-PIA); conditions: for Ki: read-out: A1 Ki
Protocol: (§1) For cell cultures used in radioligand binding assays, after harvest and homogenization, the cells were centrifuged at 200×g for 10 min, and the pellet was re-suspended in 50 mM Tris-HCl buffer (pH 7.5), containing 10 mM MgCl2. The suspension was homogenized with an electric homogenizer for 10 s and was then re-centrifuged at 20,000×g for 20 min at 4° C. The resultant membrane pellets were resuspended in buffer in the presence of 3 units/ml adenosine deaminase, and the suspension was stored at −80° C. until the binding experiments. The protein concentration was measured using the Bradford assay. Radioligand membrane binding assays

hA2AAR = hA2AAR (Homo sapiens (Human), UniProt P29274); assay: Radioligand membrane binding assay at hA2A AR ([3H]CGS21680); conditions: read-out: A2A Ki
Protocol: as §1

hA3AR [1] = biological target: T1, hA3AR (Homo sapiens (Human), UniProt P0DMS8); assay: Radioligand membrane binding assay at hA3AR ([125I]I-AB-MECA); conditions: for Ki: read-out: A3 Ki
Protocol: as §1

A3AR = A3AR (Homo sapiens (Human), UniProt P0DMS8); assay: Cyclic AMP accumulation assay, antagonism of Cl-IB-MECA (Schild analysis); format: cell-based; conditions: inhibition of forskolin-stimulated cyclic AMP by Cl-IB-MECA in CHO cells expressing the A3AR
Protocol: CHO cells stably expressing the hA3AR were seeded in 24-well plates and incubated at 37° C. overnight. The medium was removed the following day and replaced with DMEM containing 50 mM HEPES, 10 μM rolipram, 3 units/ml adenosine deaminase (Worthington Biochemical Corp., Lakewood, N.J.), and increasing concentrations of agonists and incubated for […]. Forskolin (10 μM) was added and incubated for an additional 15 min. The medium was removed, and the cells were lysed with 200 μL of 0.1 M HCl. 100 μl of the HCl solution was used in the Sigma Direct cAMP Enzyme Immunoassay following the instructions provided with the kit. The OD values were measured with a SpectraMax M5 Microplate reader (Molecular Devices, Sunnyvale, Calif.) at 405 nm.

hA3AR [2] = biological target: T1, hA3AR; assay: Fluorescent ligand binding by FCM in intact CHO cells expressing the hA3AR (preliminary, saturation, kinetics)
Protocol: In preliminary binding experiments of compounds 1-6 and MRS5449 were incubated with CHO cells expressing the hA3AR for 1 h at 37° C. in an atmosphere containing 5% CO2. The concentrations used were incubated with 1.5 μM 1, 5 μM 2, 1.5 μM 3, 10 μM 4, 20 μM 5, 15 μM 6, or 10 nM MRS5449. For further binding experiments with MRS5449, control CHO cells (CHO cells without heterologous receptor expression) and CHO cells expressing hA3AR were incubated with 10 nM MRS5449 for 3 h.
In saturation binding experiments, CHO cells expressing the hA3AR were incubated with concentrations of MRS5449 ranging from 2.5 nM to 250 nM for 1 h. To study binding kinetics of MRS5449, CHO cells expressing the hA3AR were incubated with 10 nM MRS5449 for different time intervals from 5 min to 3 h. The association and dissociation rate was measured as follows: 10 nM MRS5449 was added to CHO cells expressing the A3AR and measured total binding at different time intervals. After 90 min, dissociation was initiated by adding 10 μM of non-fluorescent A3AR antagonist MRS1220 and then measured the dissociation at different time intervals.
(§2) At the end of each time interval, the medium was removed and cells were washed three times with ice-cold DPBS. After washing, 1 ml 0.2% EDTA solution was added to each well, and cells were incubated at 37° C. for 7 min. Following cell detachment, 1 ml medium was added to each well to neutralize the EDTA. The cell suspensions were transferred to polystyrene round-bottom BD Falcon tubes (BD, Franklin Lakes, N.J.) and centrifuged for 5 min at 23° C. and 400×g. After centrifugation, the supernatant was discarded, and cells were washed with 3 ml PBS and centrifuged again at 23° C. and 400×g for 5 min. After discarding the supernatant, cells were suspended in 0.5 ml PBS and analyzed by FCM.
The mean fluorescence intensity (MFI) values of the standard particles were recorded under optimized instrument setting and converted into MESF values using the QuickCal program v. 2.3 (Bangs Laboratories, Inc., Fishers, Ind.). MFIs of receptor-bound fluorescent small molecules in this study were measured under exactly the same conditions and the assigned MESF values were extrapolated from the calibration curve.
(§3) The intensity of fluorescence emission of each sample was measured by using FCM. Cell suspensions were vortexed briefly before analysis on a Becton and Dickinson FACSCalibur flow cytometer (BD, Franklin Lakes, N.J.) with excitation at 488 nm. Samples were maintained in the dark during the analysis to avoid photobleaching. MFIs were obtained in the FL-1 channel in log mode. Ten thousand events were analyzed per sample. Data were collected using Cell Quest Pro software (BD, Franklin Lakes, N.J.) and analyzed by Cyflogic v. 1.2.1 software (CyFlo, Ltd., Turku, Finland).
Data analysis was performed with the Prism 5 (GraphPad, San Diego Calif.) software. The mean autofluorescence of CHO cells was measured in the absence of the fluorescent ligand. The mean fluorescence in the presence of fluorescent ligand was corrected by subtracting this value; Wood, J C S, Curr Protoc Cytom 2009; 1.4.1-1.4.14.

A1AR = A1AR (Homo sapiens (Human), UniProt P30542); assay: FCM binding of fluorescent ligand to CHO cells expressing the A1AR
Protocol: (§4) Chinese hamster ovary (CHO) cells without heterologous AR expression were grown in DMEM/F12 (1:1) medium with 10% FBS, 2 mM L-glutamine, 50 U/ml penicillin/streptomycin. CHO cells expressing the A1 or A3 AR and HEK293 cells expressing the A2A AR were grown in the same medium but in the presence of 500 μg/ml hygromycin B and 800 μg/ml of G418, respectively. Cells, used for FCM analysis, were grown in 6-well plates (approximately 400,000 cells/well) and incubated at 37° C. for 24 h in the presence of 5% CO2. When confluency of the cells was reached 80% (approximately 10^6 cells/well), medium was replaced with fresh medium and MRS5449 was added in the presence or absence of competitive antagonists, and cells were processed for FCM.
as §3

A2AAR = A2AAR (Homo sapiens (Human), UniProt P29274); assay: FCM binding of fluorescent ligand to HEK cells expressing the A2AAR
Protocol: as §4, §3

hA3AR [3] = biological target: T1, hA3AR; assay: FCM competitive binding in whole CHO cells using MRS5449 as tracer; conditions: whole CHO cells expressing hA3AR; 5 nM MRS5449 tracer; 90 min at 37° C.
Protocol: Total binding was measured in the absence of the competitor.
as §2
The intensity of fluorescence emission of each sample was measured by using FCM. […] Samples were maintained in the dark during the analysis to avoid photobleaching. MFIs were obtained in the FL-1 channel in log mode. Ten thousand events were analyzed per sample.
Data analysis was performed with the Prism 5 (GraphPad, San Diego Calif.) software. The mean autofluorescence of CHO cells was measured in the absence of the fluorescent ligand.

hA3AR [4] = biological target: T1, hA3AR; conditions: Table 2; cell membrane preparations using [125I]-AB-MECA; reported literature values; read-out: hA3AR radioligand binding, Ki; cited from earlier work

hA1 AR, sequence (P30542 whole entry): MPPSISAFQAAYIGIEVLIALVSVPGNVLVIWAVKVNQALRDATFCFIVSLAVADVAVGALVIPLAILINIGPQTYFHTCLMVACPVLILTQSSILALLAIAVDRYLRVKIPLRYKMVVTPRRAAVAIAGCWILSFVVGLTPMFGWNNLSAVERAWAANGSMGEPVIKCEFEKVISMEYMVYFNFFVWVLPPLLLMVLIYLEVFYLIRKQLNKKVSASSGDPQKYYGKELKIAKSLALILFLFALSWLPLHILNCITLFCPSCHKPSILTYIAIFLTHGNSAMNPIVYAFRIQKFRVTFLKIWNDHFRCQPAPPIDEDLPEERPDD
T1 sequence (P0DMS8 whole entry): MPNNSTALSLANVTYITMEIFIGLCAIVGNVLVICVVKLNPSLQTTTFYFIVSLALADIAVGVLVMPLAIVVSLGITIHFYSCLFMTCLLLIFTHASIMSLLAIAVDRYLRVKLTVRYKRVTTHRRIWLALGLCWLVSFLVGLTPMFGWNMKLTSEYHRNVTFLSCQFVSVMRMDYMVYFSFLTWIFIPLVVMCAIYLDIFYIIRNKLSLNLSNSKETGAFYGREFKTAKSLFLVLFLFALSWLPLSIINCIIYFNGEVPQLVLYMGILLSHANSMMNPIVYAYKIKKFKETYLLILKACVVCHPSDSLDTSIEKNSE
hA2AAR, sequence (P29274 whole entry): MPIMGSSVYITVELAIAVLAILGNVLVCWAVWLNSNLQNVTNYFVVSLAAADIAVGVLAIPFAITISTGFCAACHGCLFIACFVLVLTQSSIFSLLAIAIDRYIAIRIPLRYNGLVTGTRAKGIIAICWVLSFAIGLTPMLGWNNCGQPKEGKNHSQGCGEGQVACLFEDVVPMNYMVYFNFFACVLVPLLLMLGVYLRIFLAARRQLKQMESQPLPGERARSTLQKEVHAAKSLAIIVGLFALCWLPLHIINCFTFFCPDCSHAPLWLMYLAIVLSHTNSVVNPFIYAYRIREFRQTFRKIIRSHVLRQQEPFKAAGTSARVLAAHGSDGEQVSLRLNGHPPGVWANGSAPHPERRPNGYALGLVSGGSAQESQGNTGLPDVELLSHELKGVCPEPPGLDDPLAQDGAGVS
A1AR, sequence (P30542 whole entry): as the sequence (P30542 whole entry) above
A3AR, sequence (P0DMS8 whole entry): as the sequence (P0DMS8 whole entry) above
A2AAR, sequence (P29274 whole entry): as the sequence (P29274 whole entry) above

In the case of “2-(6-Amino-3-iminio-4,5-disulfonato-3H-xanthen-9-yl)-5-((6-(4-(4-((9-chloro-2-(furan-2-yl)-[1,2,4]triazolo[1,5-c]quinazolin-5-yl)amino)-4-oxobutyl)-1H-1,2,3-triazol-1-yl)hexyl)carbamoyl)benzoate [Compound 9]”, the Ki (hA1 AR; Table 1, CHO cells expressing hA1AR, agonist radioligand [3H]R-PIA) is reported as 0.087 µM, the Ki (hA2AAR; Table 1, HEK293 cells expressing hA2AAR, [3H]CGS21680) is reported as 0.073 µM and the Ki (hA3AR [1]; Table 1, CHO cells expressing hA3AR, [125I]I-AB-MECA) is reported as 0.0064 µM. For the same compound, the “selectivity for the A3AR” value (hA3AR [1]; versus hA1 and hA2AARs, radioligand binding Ki) was “over 10 fold”, the Kb (A3AR) was 0.0048 µM and the t1/2 for association (hA3AR [2]; 10 nM MRS5449, CHO cells expressing hA3AR) was 53 min. The “Kd determined through association and dissociation kinetic experiments” value (hA3AR [2]; 10 nM MRS5449, dissociation initiated after 90 min with 10 μM MRS1220) was 0.00665 ± 0.00055 µM, the “Nonspecific binding, % of total binding” value (hA3AR [2]; 10 nM MRS5449, with 10 μM MRS1220 or 10 μM Cl-IB-MECA or in control CHO cells) was “less than 1%” and the Kd (hA3AR [2]; FCM saturation binding, […] to 250 nM, nonspecific with 10 μM MRS1220, read-out: Kd (equilibrium binding constant, saturation binding)) was 0.00515 ± 0.00111 µM. The “fluorescence emission (MFI) of cell-bound ligand” value (hA3AR [2]; preliminary FCM experiments, hA3AR CHO cells, 1 h at 37° C., concentration about two times Ki) was “sufficiently high MFI”, the “binding to CHO cells expressing the A1AR compared with binding to the A3AR (expressed as 100%)” value (A1AR) was 0.3% and the “binding to HEK cells expressing the A2AAR compared with binding to the A3AR (expressed as 100%)” value (A2AAR) was 0.5%.
`OC[C@H]1O[C@@H](n2cnc3c(NC4CCCC4)ncnc32)[C@H](O)[C@@H]1O` [CPA, (2R,3R,4S,5R)-2-[6-(cyclopentylamino)purin-9-yl]-5(hydroxymethyl)oxolane-3,4-diol] gave a Ki (hA3AR [3]) of 1.49 ± 0.23 µM.
With `Nc1nc2ccc(Cl)cc2c2nc(-c3ccco3)nn12` [Compound 7] the Ki (hA3AR [3]) was 0.0161 ± 0.0062 µM.
In the case of `Cn1cc2c(nc(NC(=O)Nc3ccc(CC(=O)NCCCCCN)cc3)n3nc(-c4ccco4)nc23)n1.O=C(O)C(F)(F)F` [Compound 19, N-(5-aminopentyl)-2-(4-(3-(2-(furan-2-yl)-8-methyl-8H-pyrazolo[4,3-e][1,2,4]triazolo[1,5-c]pyrimidin-5-yl)ureido)phenyl)acetamide trifluoroacetate salt], the A1 % inhibition (hA1 AR; Table 3) is reported as 6% ± 4%, the Ki (hA2AAR; Table 3) is reported as 0.203 ± 0.052 µM and the Ki (hA3AR [1]; Table 3) is reported as 0.00266 ± 0.00048 µM. The melting point was 170 to 178 °C.
In the case of `Cn1cc2c(nc(NC(=O)Nc3ccc(CC(=O)NCCOCCOCCN)cc3)n3nc(-c4ccco4)nc23)n1.O=C(O)C(F)(F)F` [Compound 20, 2-(2-(2-(2-(4-(3-(2-(furan-2-yl)-8-methyl-8H-pyrazolo[4,3-e][1,2,4]triazolo[1,5-c]pyrimidin-5-yl)ureido)phenyl)acetamido)ethoxy)ethoxy)ethanamine trifluoroacetate salt], the A1 % inhibition (hA1 AR; Table 3) is reported as 17% ± 3%, the Ki (hA2AAR; Table 3) is reported as 0.267 ± 0.061 µM and the Ki (hA3AR [1]; Table 3) is reported as 0.0192 ± 0.0033 µM. For the same compound, the melting point was 152 to 160 °C.
With `Cn1cc2c(nc(NC(=O)Nc3ccc(CC(=O)NCCCOCCOCCOCCCN)cc3)n3nc(-c4ccco4)nc23)n1.O=C(O)C(F)(F)F` [Compound 21, N-(3-(2-(2-(3-aminopropoxy)ethoxy)ethoxy)propyl)-2-(4-(3-(2-(furan-2-yl)-8-methyl-8H-pyrazolo[4,3-e][1,2,4]triazolo[1,5-c]pyrimidin-5-yl)ureido)phenyl)acetamide trifluoroacetate salt] the A1 % inhibition (hA1 AR; Table 3) was 1% ± 1%, the Ki (hA2AAR; Table 3) was 0.328 ± 0.077 µM and the Ki (hA3AR [1]; Table 3) was 0.0103 ± 0.0004 µM. The melting point was 133 to 140 °C.
Compound `C#CCCCCC(=O)Nc1nc2nn(C)cc2c2nc(-c3ccco3)nn12` [Compound 38, N-(2-(furan-2-yl)-8-methyl-8H-pyrazolo[4,3-e][1,2,4]triazolo[1,5-c]pyrimidin-5-yl)hept-6-ynamide] has a Ki (hA1 AR; Table 3) of 0.891 ± 0.265 µM, a Ki (hA2AAR; Table 3) of 0.151 ± 0.033 µM and a Ki (hA3AR [1]; Table 3) of 0.00726 ± 0.00104 µM. The melting point was 208 to 215 °C (dec.).
In the case of `C#CCCCCCC(=O)Nc1nc2nn(C)cc2c2nc(-c3ccco3)nn12` [Compound 39, N-(2-(furan-2-yl)-8-methyl-8H-pyrazolo[4,3-e][1,2,4]triazolo[1,5-c]pyrimidin-5-yl)oct-7-ynamide], the A1 % inhibition (hA1 AR; Table 3) is reported as 62% ± 3%, the Ki (hA2AAR; Table 3) is reported as 0.482 ± 0.141 µM and the Ki (hA3AR [1]; Table 3) is reported as 0.0128 µM. The melting point was 204 to 208 °C (dec.).
In the case of `CCC1CN2C(=O)N(C)c3nc(-c4cc(Cl)cc(Cl)c4Cl)[nH]c3C2=N1` (stereo not shown) [PSB-10, 8-ethyl-1,4,7,8-tetrahydro-4-methyl-2-(2,3,5-trichlorophenyl)-5H-imidazo[2,1-i]purin-5-one monohydrochloride], the Ki (hA3AR [3]) is listed as 0.00954 ± 0.0022 µM and the Ki (hA3AR [4]) is listed as 0.000441 µM.
`Nc1nc(NCCc2ccc(O)cc2)nc2nc(-c3ccco3)nn12` [ZM241385, 4-(2-[7-amino-2-(2-furyl)[1,2,4]triazolo[2,3-a][1,3,5]triazin-5-ylamino]ethyl)phenol] showed a Ki (hA3AR [3]) of 0.3 ± 0.027 µM.
